The text below walks through data of PubChem BioAssay AID328 (DTP/NCI, 2004).

This assay concerns BDF1 mice, P388 leukemia ip, median survival T/C. The assay is described as follows: NCI In Vivo Anticancer Drug Screen. Data for tumor model P388 Leukemia (intraperitoneal) in B6D2F1 (BDF1) mice. The following applies: endpoint: median survival time, higher = longer survival. Summed up:
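Read-out is survival of treated animals expressed relative to the vehicle group, as a T/C ratio.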

Setting [1] is: dose: 100.0 mg/kg/injection, schedule: Q01DX009 (ip), vehicle: saline with Tween-80.
Where [2] appears, read: dose: 100.0 mg/kg/injection, schedule: Q04DX003 (ip), vehicle: saline with Tween-80.
Setting [3] is: dose: 200.0 mg/kg/injection, schedule: Q01DX009 (ip), vehicle: saline with Tween-80.
The mark [4] stands for this setting: dose: 200.0 mg/kg/injection, schedule: Q04DX003 (ip), vehicle: saline with Tween-80.
Setting [5] is: dose: 400.0 mg/kg/injection, schedule: Q04DX003 (ip), vehicle: saline with Tween-80.
The mark [6] stands for this setting: dose: 50.0 mg/kg/injection, schedule: Q01DX009 (ip), vehicle: saline with Tween-80.
[7] abbreviates: dose: 100.0 mg/kg/injection, schedule: Q04DX003 (ip), vehicle: Klucel (hydroxypropylcellulose) (HPC).
Setting [8] is: dose: 200.0 mg/kg/injection, schedule: Q04DX003 (ip), vehicle: Klucel (hydroxypropylcellulose) (HPC).

Several values for one entry are separate records, joined by “and”; a condition that tells them apart may be missing. Equal entries are not always repeated. Inconclusive results and toxic doses are left out.

Consider `O=C(NC(Cc1nn[nH]n1)C(=O)OCc1ccccc1)OCc1ccccc1` (stereo not drawn), for which the T/C under setting [1] was 100 % of control; the T/C under setting [2] is 111 % of control; the T/C under setting [3] is 96 % of control; the T/C under setting [4] is 94 % of control; the T/C under setting [5] is 87 % of control.
On to `O[C@@H]1CCCC[C@@H]1n1cnc2c(=S)nc[nH]c21`, for which the T/C runs as follows: under setting [1], 92 % of control; under setting [2], 100 % of control; under setting [3], 96 % of control; under setting [4], 104 % of control; under setting [5], 100 % of control.
Turning to `CCC(c1ccc(OC(=O)Cc2ccc(N(CCCl)CCCl)cc2)cc1)C(CC)c1ccc(OC(=O)Cc2ccc(N(CCCl)CCCl)cc2)cc1` (stereo not drawn), the T/C was 96 % of control (dose: 25.0 mg/kg/injection, schedule: Q01DX009 (ip), vehicle: saline with Tween-80); 104 % of control under setting [6]; 92 % of control and 100 % of control (dose: 64.0 mg/kg/injection, schedule: Q01DX009 (ip), vehicle: saline with Tween-80); 104 % of control under setting [1]; 92 % of control and 98 % of control (dose: 128.0 mg/kg/injection, schedule: Q01DX009 (ip), vehicle: saline with Tween-80); 98 % of control under setting [3]. The T/C was 93 % of control and 99 % of control (dose: 256.0 mg/kg/injection, schedule: Q01DX009 (ip), vehicle: saline with Tween-80); 107 % of control (dose: 400.0 mg/kg/injection, schedule: Q01DX009 (ip), vehicle: saline with Tween-80); 98 % of control and 104 % of control (dose: 512.0 mg/kg/injection, schedule: Q01DX009 (ip), vehicle: saline with Tween-80).
In the case of `COc1ccc2c(c1)CCC1C2CCC2(C)/C(=N/O)C3OC3C12` (stereo not drawn), the T/C under setting [6] is 121 % of control, the T/C under setting [1] is 111 % of control and the T/C under setting [3] is 111 % of control.
For the compound `CC(C)(C)c1ccc(C(c2ccc(C(C)(C)C)cc2)C(Cl)Cl)cc1`, the T/C is, setting by setting: under setting [7], 91 % of control; under setting [8], 91 % of control; (dose: 400.0 mg/kg/injection, schedule: Q04DX003 (ip), vehicle: Klucel (hydroxypropylcellulose) (HPC)) 95 % of control.
In the case of `Nc1ncnc2c1ccn2C1OC2COP(=O)(O)OC2C1O` (stereo not drawn), the T/C by setting is: (dose: 0.63 mg/kg/injection, schedule: Q01DX010 (ip), vehicle: saline) 100 % of control; (dose: 1.25 mg/kg/injection, schedule: Q01DX010 (ip), vehicle: saline) 110 % of control; (dose: 5.0 mg/kg/injection, schedule: Q01DX010 (ip), vehicle: saline) 150 % of control.
In the case of `Sc1ccc2ccccc2c1`, the T/C (dose: 50.0 mg/kg/injection, schedule: Q04DX003 (ip), vehicle: Klucel (hydroxypropylcellulose) (HPC)) was 104 % of control; the T/C (dose: 100.0 mg/kg/injection, schedule: Q01DX001 (ip), vehicle: Klucel (hydroxypropylcellulose) (HPC)) is 104 % of control; the T/C under setting [7] was 109 % of control; the T/C (dose: 200.0 mg/kg/injection, schedule: Q01DX001 (ip), vehicle: Klucel (hydroxypropylcellulose) (HPC)) is 95 % of control; the T/C under setting [8] is 109 % of control; the T/C (dose: 400.0 mg/kg/injection, schedule: Q01DX001 (ip), vehicle: Klucel (hydroxypropylcellulose) (HPC)) was 100 % of control.
`COc1cc(C[C@H]2c3cc(OC)c(OC)cc3CCN2C)c(Oc2cc3c(cc2OC)-c2c(OC)c(OC)cc4c2[C@H](C3)N(C)CC4)cc1OC`: the T/C (dose: 9.0 mg/kg/injection, schedule: Q01DX010 (ip), vehicle: other) was 90 % of control; the T/C (dose: 12.0 mg/kg/injection, schedule: Q01DX005 (ip), vehicle: other) was 95 % of control; the T/C (dose: 12.0 mg/kg/injection, schedule: Q01DX010 (ip), vehicle: other) is 100 % of control; the T/C (dose: 12.5 mg/kg/injection, schedule: Q01DX010 (ip), vehicle: other) is 109 % of control; the T/C (dose: 18.0 mg/kg/injection, schedule: Q04DX003 (ip), vehicle: other) is 95 % of control; the T/C (dose: 18.75 mg/kg/injection, schedule: Q01DX010 (ip), vehicle: other) is 118 % of control. Further, the T/C runs as follows: (dose: 24.0 mg/kg/injection, schedule: Q01DX005 (ip), vehicle: other) 90 % of control; (dose: 24.0 mg/kg/injection, schedule: Q01DX010 (ip), vehicle: other) 104 % of control; (dose: 25.0 mg/kg/injection, schedule: Q01DX010 (ip), vehicle: acetone) 104 % of control; (dose: 25.0 mg/kg/injection, schedule: Q01DX010 (ip), vehicle: other) 104 % of control; (dose: 27.0 mg/kg/injection, schedule: Q08DX002 (ip), vehicle: other) 100 % of control; (dose: 36.0 mg/kg/injection, schedule: Q04DX003 (ip), vehicle: other) 90 % of control. Besides, the T/C was 100 % of control (dose: 37.5 mg/kg/injection, schedule: Q01DX010 (ip), vehicle: carboxymethylcellulose (CMC)); 104 % of control (dose: 37.5 mg/kg/injection, schedule: Q01DX010 (ip), vehicle: other); 100 % of control (dose: 48.0 mg/kg/injection, schedule: Q01DX005 (ip), vehicle: other); 104 % of control (dose: 48.0 mg/kg/injection, schedule: Q01DX010 (ip), vehicle: other); 109 % of control (dose: 50.0 mg/kg/injection, schedule: Q01DX010 (ip), vehicle: acetone); 109 % of control (dose: 50.0 mg/kg/injection, schedule: Q01DX010 (ip), vehicle: clinical formulation). For the same compound, the T/C by setting is: (dose: 50.0 mg/kg/injection, schedule: Q01DX010 (ip), vehicle: other) 120 % of control; (dose: 54.0 mg/kg/injection, schedule: Q08DX002 (ip), vehicle: other) 95 % of control; (dose: 72.0 mg/kg/injection, schedule: Q04DX003 (ip), vehicle: other) 100 % of control; (dose: 75.0 mg/kg/injection, schedule: Q01DX010 (ip), vehicle: carboxymethylcellulose (CMC)) 100 % of control; (dose: 96.0 mg/kg/injection, schedule: Q01DX005 (ip), vehicle: other) 100 % of control; (dose: 96.0 mg/kg/injection, schedule: Q01DX010 (ip), vehicle: other) 109 % of control. Besides, the T/C was 110 % of control (dose: 100.0 mg/kg/injection, schedule: Q01DX001 (ip), vehicle: carboxymethylcellulose (CMC)); 113 % of control (dose: 100.0 mg/kg/injection, schedule: Q01DX010 (ip), vehicle: acetone); 120 % of control (dose: 100.0 mg/kg/injection, schedule: Q01DX010 (ip), vehicle: other); 100 % of control (dose: 100.0 mg/kg/injection, schedule: Q04DX002 (ip), vehicle: Klucel (hydroxypropylcellulose) (HPC)); 100 % of control (dose: 108.0 mg/kg/injection, schedule: Q08DX002 (ip), vehicle: other); 105 % of control (dose: 150.0 mg/kg/injection, schedule: Q01DX010 (ip), vehicle: carboxymethylcellulose (CMC)). The T/C (dose: 200.0 mg/kg/injection, schedule: Q01DX001 (ip), vehicle: carboxymethylcellulose (CMC)) is 105 % of control; the T/C (dose: 200.0 mg/kg/injection, schedule: Q01DX010 (ip), vehicle: other) is 100 % of control; the T/C (dose: 200.0 mg/kg/injection, schedule: Q04DX002 (ip), vehicle: Klucel (hydroxypropylcellulose) (HPC)) is 91 % of control; the T/C (dose: 216.0 mg/kg/injection, schedule: Q08DX002 (ip), vehicle: other) is 100 % of control; the T/C (dose: 400.0 mg/kg/injection, schedule: Q01DX001 (ip), vehicle: carboxymethylcellulose (CMC)) was 110 % of control; the T/C (dose: 400.0 mg/kg/injection, schedule: Q04DX002 (ip), vehicle: Klucel (hydroxypropylcellulose) (HPC)) was 100 % of control.
On to `CCCCCCCC[N+](CC)(CC)CCOC(=O)C(C1CCCC1)C1CCCC1`, for which the T/C is, setting by setting: (dose: 0.9 mg/kg/injection, schedule: Q04DX003 (ip), vehicle: saline) 90 % of control; (dose: 1.32 mg/kg/injection, schedule: Q01DX001 (ip), vehicle: saline) 87 % of control; (dose: 1.8 mg/kg/injection, schedule: Q04DX003 (ip), vehicle: saline) 109 % of control; (dose: 2.65 mg/kg/injection, schedule: Q01DX001 (ip), vehicle: saline) 100 % of control; (dose: 3.6 mg/kg/injection, schedule: Q01DX009 (ip), vehicle: saline) 110 % of control; (dose: 3.6 mg/kg/injection, schedule: Q04DX003 (ip), vehicle: saline) 109 % of control. Further, the T/C is 91 % of control (dose: 5.3 mg/kg/injection, schedule: Q01DX001 (ip), vehicle: saline) and 90 % of control (dose: 5.3 mg/kg/injection, schedule: Q04DX003 (ip), vehicle: saline).
